Measured values: paper PMC3220491 (The Journal of Biological Chemistry, 2011)
Substitutions are numbered along the chain they refer to.

Tests used:
Assay in all cases: SAT activity, acetyl-CoA decrease at […] nm
[1] = test system: Tg-N/At-C; format: biochemical, Noccaea goesingensis; Arabidopsis thaliana; settings: 1 mM L-serine, 0.1 mM acetyl-CoA, 50 mM Tris-HCl pH 8.0, room temperature; feedback inhibition
[2] = target: T1, AtSAT-c (Arabidopsis thaliana, UniProt Q42538, G270A); format: biochemical
T1 sequence (Q42538 1-312 G270A): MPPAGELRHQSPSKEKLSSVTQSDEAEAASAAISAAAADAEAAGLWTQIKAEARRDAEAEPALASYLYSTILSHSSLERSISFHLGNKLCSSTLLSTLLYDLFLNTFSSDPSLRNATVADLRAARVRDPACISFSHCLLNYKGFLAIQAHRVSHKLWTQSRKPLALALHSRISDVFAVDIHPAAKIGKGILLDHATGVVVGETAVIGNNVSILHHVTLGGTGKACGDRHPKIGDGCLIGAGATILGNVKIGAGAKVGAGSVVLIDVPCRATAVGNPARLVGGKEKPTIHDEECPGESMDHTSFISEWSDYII

[3] = target: T2, TgSAT-m (Noccaea goesingensis, UniProt Q6IWG0); format: biochemical
T2 sequence (Q6IWG0 1-395): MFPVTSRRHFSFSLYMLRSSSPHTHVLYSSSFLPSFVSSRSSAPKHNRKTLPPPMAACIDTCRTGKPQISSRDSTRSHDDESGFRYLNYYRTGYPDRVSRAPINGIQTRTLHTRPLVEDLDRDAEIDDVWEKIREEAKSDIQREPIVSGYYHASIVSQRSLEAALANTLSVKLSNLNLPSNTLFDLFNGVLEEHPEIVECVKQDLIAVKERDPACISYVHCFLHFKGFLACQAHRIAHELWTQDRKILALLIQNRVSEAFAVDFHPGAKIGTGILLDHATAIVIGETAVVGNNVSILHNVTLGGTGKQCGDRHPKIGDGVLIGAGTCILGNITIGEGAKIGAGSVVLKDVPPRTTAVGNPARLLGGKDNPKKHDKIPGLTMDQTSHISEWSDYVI

[4] = target: T3, TgSAT-c (Noccaea goesingensis, UniProt Q6IWF8); format: biochemical
T3 sequence (Q6IWF8 1-311): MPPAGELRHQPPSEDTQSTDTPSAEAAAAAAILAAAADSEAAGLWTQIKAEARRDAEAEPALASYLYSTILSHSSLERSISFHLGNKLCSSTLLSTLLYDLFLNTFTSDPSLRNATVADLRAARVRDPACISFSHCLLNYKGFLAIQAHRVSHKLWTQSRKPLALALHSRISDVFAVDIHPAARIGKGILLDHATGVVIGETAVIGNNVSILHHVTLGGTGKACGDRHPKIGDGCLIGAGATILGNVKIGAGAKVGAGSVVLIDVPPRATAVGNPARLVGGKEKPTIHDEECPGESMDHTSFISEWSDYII

[5] = test system: At-N/Tg-C; format: biochemical, Arabidopsis thaliana; Noccaea goesingensis; settings: 1 mM L-serine, 0.1 mM acetyl-CoA, 50 mM Tris-HCl pH 8.0, room temperature; feedback inhibition
[6] = target: T4, TgSAT-p (Noccaea goesingensis, UniProt Q6IWF9); format: biochemical
T4 sequence (Q6IWF9 1-319): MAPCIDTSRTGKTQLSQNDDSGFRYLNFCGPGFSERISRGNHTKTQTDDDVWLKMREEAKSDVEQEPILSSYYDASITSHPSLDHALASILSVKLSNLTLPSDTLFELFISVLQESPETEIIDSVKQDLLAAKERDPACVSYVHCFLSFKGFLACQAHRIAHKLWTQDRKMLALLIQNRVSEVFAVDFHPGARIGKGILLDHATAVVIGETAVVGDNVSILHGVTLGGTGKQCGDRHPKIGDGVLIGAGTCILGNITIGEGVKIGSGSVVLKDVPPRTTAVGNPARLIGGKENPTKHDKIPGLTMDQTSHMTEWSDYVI

[7] = target: T5, AtSAT-c (Arabidopsis thaliana, UniProt Q42538); format: biochemical
T5 sequence (Q42538 1-312): T1 sequence (Q42538 1-312 G270A) with A270G

[8] = target: T6, AtSAT-c (Arabidopsis thaliana, UniProt Q42538, C268P/G270A); format: biochemical
T6 sequence (Q42538 1-312 C268P/G270A): T1 sequence (Q42538 1-312 G270A) with C268P

[9] = target: T7, AtSAT-c (Arabidopsis thaliana, UniProt Q42538, C268P); format: biochemical
T7 sequence (Q42538 1-312 C268P): T1 sequence (Q42538 1-312 G270A) with C268P, A270G

IC50 [1]: 3.4 µM | IC50 [2]: 17.7 µM | IC50 [3]: > 100 µM | IC50 [4]: > 100 µM | IC50 [5]: > 100 µM | IC50 [6]: > 100 µM | IC50 [7]: 3.3 µM | IC50 [8]: > 100 µM | IC50 [9]: 83.9 µM
Structure (SMILES): N[C@@H](CS)C(=O)O [L-Cys]
